The experiment has as its target T1, human CTPS1 (Homo sapiens, UniProt P17812).
T1 sequence (P17812 1-591): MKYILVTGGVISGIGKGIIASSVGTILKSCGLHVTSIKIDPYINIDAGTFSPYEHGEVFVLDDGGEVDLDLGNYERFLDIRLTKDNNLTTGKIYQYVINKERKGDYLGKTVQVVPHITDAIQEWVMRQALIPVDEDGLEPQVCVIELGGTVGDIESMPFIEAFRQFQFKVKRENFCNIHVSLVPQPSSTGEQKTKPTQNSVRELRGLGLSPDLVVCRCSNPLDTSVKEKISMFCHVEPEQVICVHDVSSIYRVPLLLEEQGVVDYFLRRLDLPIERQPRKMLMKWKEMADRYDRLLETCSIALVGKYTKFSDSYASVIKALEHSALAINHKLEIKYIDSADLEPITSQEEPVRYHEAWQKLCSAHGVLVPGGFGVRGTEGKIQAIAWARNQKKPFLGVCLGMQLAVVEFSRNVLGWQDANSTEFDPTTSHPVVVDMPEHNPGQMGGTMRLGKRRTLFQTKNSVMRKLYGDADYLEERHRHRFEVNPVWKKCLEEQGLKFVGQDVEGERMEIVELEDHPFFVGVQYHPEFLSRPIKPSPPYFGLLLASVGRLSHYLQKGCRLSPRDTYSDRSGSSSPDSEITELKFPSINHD
Briefly: ADP-Glo assay, human CTPS1 enzyme inhibition. Format: biochemical. As to conditions: wild-type human CTPS1, 25 nM enzyme; ADP-Glo; read-out: ADP-Glo_WT_hCTPS1—25 nM_IC50 (IC50). In outline:
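Full-length tagged human CTPS1 (25 nM) pre-incubated 10 min at 25° C with compound, then 10 min with ATP (120 μM) and UTP (160 μM); reaction started with L-glutamine (100 μM) and GTP (60 μM), 1% DMSO, in HEPES pH 7.4, 10 mM Mg2+, 5 mM KCl, 2 mM DTT. Run within linear phase at 25° C; ADP measured by ADP-Glo luminescence.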
(In ADP-Glo the light output rises with the ADP produced.)

As a reminder, the IC50 is the concentration that inhibits the measured activity by half. For the compound `CCOc1cncc(-c2cnc(C(=O)N(C)[C@H](c3cc(NS(=O)(=O)C4CC4)ccn3)[C@@H]3CCOC3)s2)n1` [I-64, N-((S)-(4-(cyclopropanesulfonamido)pyridin-2-yl)((S)-tetrahydrofuran-3-yl)methyl)-5-(6-ethoxypyrazin-2-yl)-N-methylthiazole-2-carboxamide], the IC50 lay within 50 to 100 nM.
The result for `CCOc1cncc(-c2cnc(C(=O)N(C)[C@@H](c3cc(NS(=O)(=O)C4CC4)ccn3)[C@H]3CCOC3)s2)n1` [I-65, N-((R)-(4-(cyclopropanesulfonamido)pyridin-2-yl)((R)-tetrahydrofuran-3-yl)methyl)-5-(6-ethoxypyrazin-2-yl)-N-methylthiazole-2-carboxamide] reads greater than 100 nM.
On to `CCOc1cncc(-c2cnc(C(=O)N(C)[C@@H](c3cc(NS(=O)(=O)C4CC4)ccn3)[C@@H]3CCOC3)s2)n1` [I-66, N-((R)-(4-(cyclopropanesulfonamido)pyridin-2-yl)((S)-tetrahydrofuran-3-yl)methyl)-5-(6-ethoxypyrazin-2-yl)-N-methylthiazole-2-carboxamide], for which the half-inhibitory concentration (IC50) was 25 to 50 nM.
The figure for `CCOc1cncc(-c2ccc(C(=O)N[C@H](c3cc(NS(=O)(=O)C4CC4)ccn3)[C@H]3CCCO3)nc2)n1` [I-67, N-((R)-(4-(cyclopropanesulfonamido)pyridin-2-yl)((R)-tetrahydrofuran-2-yl)methyl)-5-(6-ethoxypyrazin-2-yl)picolinamide] is 25 to 50 nM; for `CCOc1cncc(-c2ccc(C(=O)N[C@H](c3cc(NS(=O)(=O)C4CC4)ccn3)[C@@H]3CCCO3)nc2)n1` [I-68, N-((R)-(4-(cyclopropanesulfonamido)pyridin-2-yl)((S)-tetrahydrofuran-2-yl)methyl)-5-(6-ethoxypyrazin-2-yl)picolinamide] it is 25 to 50 nM.
Take `CCOc1cncc(-c2ccc(C(=O)N[C@@H](c3cc(NS(=O)(=O)C4CC4)ccn3)[C@@H]3CCCO3)nc2)n1` [I-69, N-((S)-(4-(cyclopropanesulfonamido)pyridin-2-yl)((S)-tetrahydrofuran-2-yl)methyl)-5-(6-ethoxypyrazin-2-yl)picolinamide]: the IC50 lay within 25 to 50 nM.
The result for `CCOc1cncc(-c2ccc(C(=O)N[C@@H](c3cc(NS(=O)(=O)C4CC4)ccn3)[C@H]3CCCO3)nc2)n1` [I-70, N-((S)-(4-(cyclopropanesulfonamido)pyridin-2-yl)((R)-tetrahydrofuran-2-yl)methyl)-5-(6-ethoxypyrazin-2-yl)picolinamide] reads 25 to 50 nM.
The result for `CCOc1cncc(-c2cnc(C(=O)N[C@H](c3cc(NS(=O)(=O)C4CC4)ccn3)[C@H]3COCCO3)s2)n1` [I-73, N-((R)-(4-(cyclopropanesulfonamido)pyridin-2-yl)((S)-1,4-dioxan-2-yl)methyl)-5-(6-ethoxypyrazin-2-yl)thiazole-2-carboxamide] reads 5 to 25 nM; that for `CCOc1cncc(-c2cnc(C(=O)N[C@H](c3cc(NS(=O)(=O)C4CC4)ccn3)[C@@H]3COCCO3)s2)n1` [I-74, N-((R)-(4-(cyclopropanesulfonamido)pyridin-2-yl)((R)-1,4-dioxan-2-yl)methyl)-5-(6-ethoxypyrazin-2-yl)thiazole-2-carboxamide], 5 to 25 nM; that for `CCOc1cncc(-c2cnc(C(=O)N[C@@H](c3cc(NS(=O)(=O)C4CC4)ccn3)[C@H]3COCCO3)s2)n1` [I-75, N-((S)-(4-(cyclopropanesulfonamido)pyridin-2-yl)((S)-1,4-dioxan-2-yl)methyl)-5-(6-ethoxypyrazin-2-yl)thiazole-2-carboxamide], 5 to 25 nM.
In the case of `CCOc1cncc(-c2cnc(C(=O)N[C@@H](c3cc(NS(=O)(=O)C4CC4)ccn3)[C@@H]3COCCO3)s2)n1` [I-76, N-((S)-(4-(cyclopropanesulfonamido)pyridin-2-yl)((R)-1,4-dioxan-2-yl)methyl)-5-(6-ethoxypyrazin-2-yl)thiazole-2-carboxamide], the IC50 was no more than 5 nM.
The result for `O=C(N[C@H](c1cc(NS(=O)(=O)C2CC2)ccn1)[C@H]1COCCO1)c1ncc(-c2cnn3ccc(Cl)cc23)s1` [I-77, 5-(5-chloropyrazolo[1,5-a]pyridin-3-yl)-N-((R)-(4-(cyclopropanesulfonamido)pyridin-2-yl)((S)-1,4-dioxan-2-yl)methyl)thiazole-2-carboxamide] reads 5 to 25 nM; that for `O=C(N[C@H](c1cc(NS(=O)(=O)C2CC2)ccn1)[C@@H]1COCCO1)c1ncc(-c2cnn3ccc(Cl)cc23)s1` [I-78, 5-(5-chloropyrazolo[1,5-a]pyridin-3-yl)-N-((R)-(4-(cyclopropanesulfonamido)pyridin-2-yl)((R)-1,4-dioxan-2-yl)methyl)thiazole-2-carboxamide], 5 to 25 nM.
The figure for `O=C(N[C@@H](c1cc(NS(=O)(=O)C2CC2)ccn1)[C@@H]1COCCO1)c1ncc(-c2cnn3ccc(Cl)cc23)s1` [I-79, 5-(5-chloropyrazolo[1,5-a]pyridin-3-yl)-N-((S)-(4-(cyclopropanesulfonamido)pyridin-2-yl)((R)-1,4-dioxan-2-yl)methyl)thiazole-2-carboxamide] is 5 to 25 nM; for `O=C(N[C@@H](c1cc(NS(=O)(=O)C2CC2)ccn1)[C@H]1COCCO1)c1ncc(-c2cnn3ccc(Cl)cc23)s1` [I-80, 5-(5-chloropyrazolo[1,5-a]pyridin-3-yl)-N-((S)-(4-(cyclopropanesulfonamido)pyridin-2-yl)((S)-1,4-dioxan-2-yl)methyl)thiazole-2-carboxamide] it is 5 to 25 nM; for `CCOc1cncc(-c2cnc(C(=O)N[C@@H](c3cc(NS(=O)(=O)C4CC4)ccn3)[C@@H]3C[C@@H]4CC[C@H]3O4)s2)n1` [I-81, N-((R)-((1R,2S,4S)-7-oxabicyclo[2.2.1]heptan-2-yl)(4-(cyclopropanesulfonamido)pyridin-2-yl)methyl)-5-(6-ethoxypyrazin-2-yl)thiazole-2-carboxamide] it is no more than 5 nM.
Regarding `CCOc1cncc(-c2cnc(C(=O)N[C@H](c3cc(NS(=O)(=O)C4CC4)ccn3)[C@@H]3C[C@@H]4CC[C@H]3O4)s2)n1` [I-82, N-((S)-((1R,2S,4S)-7-oxabicyclo[2.2.1]heptan-2-yl)(4-(cyclopropanesulfonamido)pyridin-2-yl)methyl)-5-(6-ethoxypyrazin-2-yl)thiazole-2-carboxamide], the IC50 was no more than 5 nM.
Take `CCOc1cncc(-c2cnc(C(=O)N[C@H](c3cc(NS(=O)(=O)C4CC4)ccn3)[C@H]3C[C@H]4CC[C@@H]3O4)s2)n1` [I-83, N-((S)-((1S,2R,4R)-7-oxabicyclo[2.2.1]heptan-2-yl)(4-(cyclopropanesulfonamido)pyridin-2-yl)methyl)-5-(6-ethoxypyrazin-2-yl)thiazole-2-carboxamide]: the IC50 is 5 to 25 nM.
For `CCOc1cncc(-c2cnc(C(=O)N[C@@H](c3cc(NS(=O)(=O)C4CC4)ccn3)[C@H]3C[C@H]4CC[C@@H]3O4)s2)n1` [I-84, N-((R)-((1S,2R,4R)-7-oxabicyclo[2.2.1]heptan-2-yl)(4-(cyclopropanesulfonamido)pyridin-2-yl)methyl)-5-(6-ethoxypyrazin-2-yl)thiazole-2-carboxamide], the IC50 is no more than 5 nM.
The figure for `O=C(N[C@H](c1cc(NS(=O)(=O)C2CC2)ccn1)C1CCOCC1)c1ncc(-c2cnn3ccc(Cl)cc23)s1` [I-85, (S)-5-(5-chloropyrazolo[1,5-a]pyridin-3-yl)-N-((4-(cyclopropanesulfonamido)pyridin-2-yl)(tetrahydro-2H-pyran-4-yl)methyl)thiazole-2-carboxamide] is 25 to 50 nM; for `O=C(N[C@@H](c1cc(NS(=O)(=O)C2CC2)ccn1)C1CCOCC1)c1ncc(-c2cnn3ccc(Cl)cc23)s1` [I-86, (R)-5-(5-chloropyrazolo[1,5-a]pyridin-3-yl)-N-((4-(cyclopropanesulfonamido)pyridin-2-yl)(tetrahydro-2H-pyran-4-yl)methyl)thiazole-2-carboxamide] it is 5 to 25 nM; for `CCOc1cncc(-c2cnc(C(=O)N[C@]3(c4cc(NS(=O)(=O)C5CC5)ccn4)C[C@H](O)C3)s2)n1` [I-87, N-((1s,3s)-1-(4-(cyclopropanesulfonamido)pyridin-2-yl)-3-hydroxycyclobutyl)-5-(6-ethoxypyrazin-2-yl)thiazole-2-carboxamide] it is no more than 5 nM.
Consider `CCOc1cncc(-c2cnc(C(=O)N[C@]3(c4cc(NS(=O)(=O)C5CC5)ccn4)C[C@@H](O)C3)s2)n1` [I-88, N-((1r,3r)-1-(4-(cyclopropanesulfonamido)pyridin-2-yl)-3-hydroxycyclobutyl)-5-(6-ethoxypyrazin-2-yl)thiazole-2-carboxamide], for which the half-maximal inhibitory concentration (IC50) was no more than 5 nM.
The figure for `O=C(N[C@]1(c2cc(NS(=O)(=O)C3CC3)ccn2)C[C@H](O)C1)c1ncc(-c2cnn3ccc(Cl)cc23)s1` [I-89, 5-(5-chloropyrazolo[1,5-a]pyridin-3-yl)-N-((1s,3s)-1-(4-(cyclopropanesulfonamido)pyridin-2-yl)-3-hydroxycyclobutyl)thiazole-2-carboxamide] is 5 to 25 nM.
